Measurements from patent US11065249B2, “Diacylglycerol acyl transferase 2 inhibitor” (Pfizer Inc., priority 2019, dated 2021).
Counter-ions that a name gives are not always drawn.

Legend:
[1] = Intrinsic clearance in human liver microsomes; assay type: in vitro ADME; details: 1 μM test compound, mean +/− STD Dev; for microsomal CLint at 1 μM: human, pooled human liver microsomes, pH 7.4, human liver microsome assay; for CLint (+/−STD Dev): human liver microsome assay
Description: The incubations were conducted at 37° C. […] (Sorvall R C 3C Plus, Thermo Scientific, Waltham, Mass.).

human DGAT2 (hDGAT2) = human DGAT2 (hDGAT2) (Homo sapiens (Human), UniProt Q96PD7); experiment: In vitro DGAT2 assay, determination of IC50 values for DGAT2 inhibitors; assay type: biochemical; details: inhibition of DGAT2, hDGAT2 membrane fractions; geometric mean
Description: Recombinant baculovirus for the FLAG-tagged hDGAT2 was generated in SF9 insect cells using Bac-to-Bac baculovirus expression system (Invitrogen) according to the manufacturer's protocol. For the expression of hDGAT2, SF9 cells (20 L) grown in Sf900II media were infected with hDGAT2 baculovirus at a multiplicity of infection of 1 in a Wave Bioreactor System 20/50P wave bag (GE Healthcare). After 40 hours of infection, the cells were then harvested by centrifugation at 5,000×g. The cell pellets were washed by resuspending in phosphate buffered saline (PBS) and collected by centrifugation at 5,000×g. The cell paste was flash frozen in liquid N2 and stored at −80° C. until needed. All operations below were at 4° C. unless otherwise noted. The cells were resuspended in lysis buffer (50 mM Tris-HCl, pH 8.0, 250 mM sucrose) including 1 mM ethylenediaminetetraacetic acid (EDTA) and the complete protease inhibitor cocktail (Roche Diagnostics) at a ratio of 3 mL buffer per 1 g cell paste. The cells were lysed by dounce homogenizer. The cell debris was removed by centrifugation at 1,000×g for 20 min, and the supernatant was centrifuged at 100,000×g for 1 hour. The resulting pellet was rinsed three times by filling ultracentrifuge tubes to the top with ice cold PBS before decanting. The washed pellet was resuspended with gentle stirring for 1 hour in lysis buffer containing 8 mM 3-[(3-cholamidopropyl)dimethylammonio]-1-propanesulfonate (CHAPS) at a ratio of 1 mL buffer per 1 g of original cell paste and centrifuged again at 100,000×g for 1 hour. The resulting supernatant was aliquotted, flash frozen in liquid N2, and stored at −80° C. until use.
To 1 μL of compounds dissolved in 100% DMSO and spotted at the bottom of each well, 5 μL of 0.04% bovine serum albumin (BSA) (fatty acid free, Sigma Aldrich) was added and the mixture was incubated at room temperature for 15 minutes. hDGAT2 membrane fractions were diluted in 100 mM Hepes-NaOH, pH 7.4, 20 mM MgCl2 containing 200 nM methyl arachidonyl fluorophosphonate (Cayman Chemical, dried from ethyl acetate stock solution under argon gas and dissolved in DMSO as 5 mM stock). 10 μL of this enzyme working solution was added to the plates and incubation continued for 2 hours at room temperature. DGAT2 reactions were initiated by the addition of 4 μL of substrates containing 30 μM [1-^14C]decanoyl-CoA (custom-synthesized by Perkin Elmer, 50 mCi/mmol) and 125 μM 1,2-didecanoyl-sn-glycerol (Avanti Polar Lipids) dissolved in 12.5% acetone. The reaction mixtures were incubated at room temperature for 40 min and the reactions were stopped by addition of 5 μL of 1% H3PO4. After the addition of 45 μL MicroScint-E (Perkin-Elmer), plates were sealed with Top Seal-A covers (Perkin-Elmer) and phase partitioning of substrates and products was achieved using a HT-91100 microplate orbital shaker (Big Bear Automation, Santa Clara, Calif.). Plates were centrifuged at 2,000×g for 1 minute in an Allegra 6R Centrifuge (Beckman Coulter) and then were sealed again with fresh covers before reading in a 1450 Microbeta Wallac Trilux Scintillation Counter (Perkin Elmer). DGAT2 activity was measured by quantifying the generated product [^14C]tridecanoylglycerol in the upper organic phase.
Inhibitors were tested at eleven different concentrations to generate IC50 values for each compound.

[2] = Determination of pKa (capillary electrophoresis, Analiza); assay type: physicochemical; details: most basic pKa, mean
[3] = High throughput determination of intrinsic clearance in human hepatocytes; assay type: in vitro ADME; details: human, pooled cryopreserved human hepatocytes (suspension), high throughput human hepatocyte assay, 1 μM test compound; mean +/− Std Dev
Description: The incubation was carried out at 37° C. […] The samples were centrifuged (Eppendorf, Hauppauge, N.Y.) at 3000 rpm for 5 min at 4° C.

Sequence of human DGAT2 (hDGAT2) (Q96PD7 whole entry): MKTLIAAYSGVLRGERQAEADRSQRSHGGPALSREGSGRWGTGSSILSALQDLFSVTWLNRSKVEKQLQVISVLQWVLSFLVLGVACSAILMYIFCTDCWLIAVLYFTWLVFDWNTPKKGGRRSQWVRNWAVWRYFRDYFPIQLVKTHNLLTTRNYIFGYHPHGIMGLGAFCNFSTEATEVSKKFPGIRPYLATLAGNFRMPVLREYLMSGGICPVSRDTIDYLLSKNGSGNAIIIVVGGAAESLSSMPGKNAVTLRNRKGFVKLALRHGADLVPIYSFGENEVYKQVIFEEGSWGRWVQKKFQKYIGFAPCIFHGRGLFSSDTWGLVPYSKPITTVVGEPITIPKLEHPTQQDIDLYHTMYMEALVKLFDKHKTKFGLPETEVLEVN

microsomal CLint at 1 μM [1] | IC50 (human DGAT2 (hDGAT2)) | pKa [2] | hepatocyte CLint at 1 μM [3] | SMILES | further results
21 µL/min/mg |  |  | 5.3 µL/min/1e6 cells | CCOc1cccnc1Oc1cncc(-c2ncc(C(=O)N[C@H]3CNCCC3(F)F)cn2)c1 (single isomer, unassigned) [Example 15, N-[(3S)-4,4-difluoropiperidin-3-yl]-2-{5-[(3-ethoxypyridin-2-yl)oxy]pyridin-3-yl}pyrimidine-5-carboxamide, trifluoroacetate salt or N-[(3R)-4,4-difluoropiperidin-3-yl]-2-{5-[(3-ethoxypyridin-2-yl)oxy]pyridin-3-yl}pyrimidine-5-carboxamide, trifluoroacetate salt] | 
 | 480 nM | 6.4 |  | CCOc1cccnc1Oc1cncc(-c2ncc(C(=O)N[C@H]3CNCCC3(F)F)cn2)c1 (single isomer, unassigned) [Example 16, N-[(3S)-4,4-difluoropiperidin-3-yl]-2-{5-[(3-ethoxypyridin-2-yl)oxy]pyridin-3-yl}pyrimidine-5-carboxamide, trifluoroacetate salt or N-[(3R)-4,4-difluoropiperidin-3-yl]-2-{5-[(3-ethoxypyridin-2-yl)oxy]pyridin-3-yl}pyrimidine-5-carboxamide, trifluoroacetate salt] | CLint (+/−STD Dev) ([1]; trifluoroacetate salt): 17 µL/min/mg
19 µL/min/mg |  | 5.2 | 9.3 µL/min/1e6 cells | CCOc1cccnc1Oc1cncc(-c2ncc(C(=O)N[C@@H]3CNCC(F)(F)C3)cn2)c1 (single isomer, unassigned) [Example 18, N-[(3S)-5,5-difluoropiperidin-3-yl]-2-{5-[(3-ethoxypyridin-2-yl)oxy]pyridin-3-yl}pyrimidine-5-carboxamide or N-[(3R)-5,5-difluoropiperidin-3-yl]-2-{5-[(3-ethoxypyridin-2-yl)oxy]pyridin-3-yl}pyrimidine-5-carboxamide] | 
 | 240 nM |  |  | CCOc1cccnc1Oc1cncc(-c2ncc(C(=O)N[C@@H]3CNCC(F)(F)C3)cn2)c1 (single isomer, unassigned) [Example 19, N-[(3S)-5,5-difluoropiperidin-3-yl]-2-{5-[(3-ethoxypyridin-2-yl)oxy]pyridin-3-yl}pyrimidine-5-carboxamide or N-[(3R)-5,5-difluoropiperidin-3-yl]-2-{5-[(3-ethoxypyridin-2-yl)oxy]pyridin-3-yl}pyrimidine-5-carboxamide] | Basic pKa [2]: 5.2; CLint (+/−STD Dev) [1]: 34 ± 1.9 µL/min/mg
23 µL/min/mg |  | 5.4 | 8.3 µL/min/1e6 cells | CCOc1cccnc1Oc1cncc(-c2ncc(C(=O)NC3CNCC(F)(F)C3)cn2)c1 (centres unmarked) [Example 17, N-(5,5-difluoropiperidin-3-yl)-2-{5-[(3-ethoxypyridin-2-yl)oxy]pyridin-3-yl}pyrimidine-5-carboxamide] | 
< 8 µL/min/mg |  |  |  | CCOc1cccnc1Oc1cncc(-c2ncc(C(=O)N[C@@H]3CCCNC3)cn2)c1 [Example 22, 2-{5-[(3-ethoxypyridin-2-yl)oxy]pyridin-3-yl}-N-[(3R)-piperidin-3-yl]pyrimidine-5-carboxamide, trifluoroacetate salt] | 

Continued, compound first:

SMILES | microsomal CLint at 1 μM [1] | IC50 (human DGAT2 (hDGAT2)) | pKa [2] | hepatocyte CLint at 1 μM [3] | further results
CCOc1cccnc1Oc1cncc(-c2ncc(C(=O)NC3CCCNC3C)cn2)c1 (mixture of isomers) [Example 23, 2-{5-[(3-ethoxypyridin-2-yl)oxy]pyridin-3-yl}-N-(2-methylpiperidin-3-yl)pyrimidine-5-carboxamide, trifluoroacetate salt, mixture of stereoisomers] | < 8 µL/min/mg |  |  |  | 
CCOc1cccnc1Oc1cncc(-c2ncc(C(=O)N[C@H]3CNCC[C@H]3C)cn2)c1 (racemic) [Example 20, rac-2-{5-[(3-ethoxypyridin-2-yl)oxy]pyridin-3-yl}-N-[(3R,4R)-4-methylpiperidin-3-yl]pyrimidine-5-carboxamide, trifluoroacetate salt] | 8.9 µL/min/mg | 2100 nM |  |  | 
CCOc1cccnc1Oc1cncc(-c2ncc(C(=O)N[C@@H]3CNCC[C@H]3C)cn2)c1 (racemic) [Example 24, rac-2-{5-[(3-ethoxypyridin-2-yl)oxy]pyridin-3-yl}-N-[(3R,4S)-4-methylpiperidin-3-yl]pyrimidine-5-carboxamide, trifluoroacetate salt] | < 8 µL/min/mg | 16000 nM |  |  | 
CCOc1cccnc1Oc1cncc(-c2ncc(C(=O)N[C@H]3CCC(C(F)(F)F)NC3)cn2)c1 (single isomer, unassigned) [Example 8, rac-2-{5-[(3-ethoxypyridin-2-yl)oxy]pyridin-3-yl}-N-[(3R,6S)-6-(trifluoromethyl)piperidin-3-yl]pyrimidine-5-carboxamide or rac-2-{5-[(3-ethoxypyridin-2-yl)oxy]pyridin-3-yl}-N-[(3R,6R)-6-(trifluoromethyl)piperidin-3-yl]pyrimidine-5-carboxamide] | < 14 µL/min/mg | 650 nM | 5.3 |  | 
CCOc1cccnc1Oc1cncc(-c2ncc(C(=O)NC3CCC(C(F)(F)F)NC3)cn2)c1 (single isomer, unassigned; ent-2) [Example 11, 2-{5-[(3-ethoxypyridin-2-yl)oxy]pyridin-3-yl}-N-[6-(trifluoromethyl)piperidin-3-yl]pyrimidine-5-carboxamide, trifluoroacetate salt, ENT-2] |  | 4.4 nM | 4.5 |  | CLint (+/−STD Dev) [1]: >290 µL/min/mg
CCOc1cc(F)cnc1Oc1cncc(-c2ncc(C(=O)N[C@@H]3CNC[C@@H](F)C3)cn2)c1 [Example 2, 2-{5-[(3-Ethoxy-5-fluoropyridin-2-yl)oxy]pyridin-3-yl}-N-[(3S,5S)-5-fluoropiperidin-3-yl]pyrimidine-5-carboxamide] | < 7 µL/min/mg |  | 7.3 | 3.6 µL/min/1e6 cells | 
CCOc1cc(F)cnc1Oc1cncc(-c2ncc(C(=O)N[C@@H]3CNCC[C@H]3F)cn2)c1 [Example 6, 2-{5-[(3-Ethoxy-5-fluoropyridin-2-yl)oxy]pyridin-3-yl}-N-[(3R,4R)-4-fluoropiperidin-3-yl]pyrimidine-5-carboxamide] | < 7.8 µL/min/mg |  | 7.4 | 4.7 µL/min/1e6 cells | 
CCOc1cccnc1Oc1cncc(-c2ncc(C(=O)N[C@H]3CNCC[C@@H]3F)cn2)c1 [Example 12, 2-{5-[(3-ethoxypyridin-2-yl)oxy]pyridin-3-yl}-N-[(3S,4S)-4-fluoropiperidin-3-yl]pyrimidine-5-carboxamide, trifluoroacetate salt] | < 7 µL/min/mg |  | 7.5 | < 2.6 µL/min/1e6 cells | 
CCOc1cc(F)cnc1Oc1cncc(-c2ncc(C(=O)N[C@H]3CNCC[C@@H]3F)cn2)c1 [Example 13, 2-{5-[(3-ethoxy-5-fluoropyridin-2-yl)oxy]pyridin-3-yl}-N-[(3S,4S)-4-fluoropiperidin-3-yl]pyrimidine-5-carboxamide, formate salt] | 35 µL/min/mg |  | 6.7 | 12 µL/min/1e6 cells | 
CCOc1cccnc1Oc1cncc(-c2ncc(C(=O)N[C@H]3CCCNC3)cn2)c1 [Example 14, 2-{5-[(3-ethoxypyridin-2-yl)oxy]pyridin-3-yl}-N-[(3S)-piperidin-3-yl]pyrimidine-5-carboxamide, trifluoroacetate salt] | < 8 µL/min/mg |  |  | < 1.8 µL/min/1e6 cells | 
CCOc1cccnc1Oc1cncc(-c2ncc(C(=O)NC3CCCNC3)cn2)c1 (centres unmarked) [Example 21, 2-{5-[(3-ethoxypyridin-2-yl)oxy]pyridin-3-yl}-N-(piperidin-3-yl)pyrimidine-5-carboxamide, trifluoroacetate salt] | < 8 µL/min/mg |  |  |  | 
